{"source": "paper PMC4767605", "about": "(Cancer chemotherapy and pharmacology, 2016)", "assay": "Phase I study: plasma pharmacokinetics of ASP9853 and docetaxel", "assay_type": "in vivo, human", "settings": "compared with reported docetaxel alone [29]", "data": [{"smiles": "CC(=O)O[C@@]12CO[C@@H]1C[C@H](O)[C@@]1(C)C(=O)[C@H](O)C3=C(C)[C@@H](OC(=O)[C@H](O)[C@@H](NC(=O)OC(C)(C)C)c4ccccc4)C[C@@](O)([C@@H](OC(=O)c4ccccc4)[C@H]21)C3(C)C", "note": "[docetaxel, reference compound]", "values": [{"measurement": "Docetaxel PK in combination with ASP9853", "result": "appeared similar to that reported for docetaxel alone"}]}]}
